According to patent US5000936A, “Methods for locally-treating allergic disorders with pharmaceutical preparations containing N-acetyl-aspartyl glutamic acid or its salts” (THEA (Therapeutique et Applications) S.A., priority 1983, dated 1991):
Counter-ions that a name gives are not always drawn. Where a SMILES comes first, the peptide text is derived from it.

How the values were obtained:
[1] = metabolism after oral and parenteral administration (statement); format: in vivo; settings: oral and parenteral routes of administration
[2] = tested on: mast cells of the nasal mucosa; experiment: mast cell degranulation of nasal mucosa of guinea pig by instillation of 48/80; format: in vivo
Protocol: The test is based on the determination by microscopy of the number of granulated mast cells per unit area in the nasal mucosa of the guinea pig, and on the study of the administration of a histamine releasing substance --48/80--on this number of mast cells. Guinea pigs receive in each nostril, twice daily during 3 days. 0.1 ml of the product under investigation, 15 minutes before the nasal instillation of 0.1 ml of 48/80 in solution at 2 % concentration; the animals are sacrificed 1 hour after the last instillation.
After sacrifice, the nasal mucosa is removed, then fixed and stained with toluidine blue to allow selective staining of the granulated mast cells. For each animal, the mast cells contained in 100 microscopic fields are counted by microscopy.

[3] = tested on: sub-acute and chronic atopic conjunctivitis; experiment: clinical study in sub-acute and chronic atopic conjunctivitis (Example XII); format: in vivo; settings: 27 patients; at least one year on 2 % Cromoglycate, then two months 4 % NAAGA eye-drops four times daily
Protocol: Twenty seven patients suffering from sub-acute and chronic atopic conjunctivitis who were treated for at least one year on 2 % Cromoglycate eye-drops, were switched from Cromoglycate treatment to 4 % NAAGA eye-drops four times daily. Before and after two months treatment period with composition according to example I.2., the patients were checked objectively in order to score the severity of conjunctival livid hyperemia and the amount of exudate. Subjectively the patients were asked to assess the symptoms of itching, burning and photophobia. Objective and subjective assessments were scored by means of visual analog scales.

[4] = tested on: perennial allergic rhinitis; experiment: double-blind cross-over clinical study in perennial allergic rhinitis (Example XIII); format: in vivo, patients; settings: 2 sprays per nostril, 5 times per day, 2 weeks
Protocol: The aim of the present study was to determine the efficacy and tolerance of the composition according to example II.2., in the treatment of allergic rhinitis. For this purpose, a double-blind trial was undertaken versus a reference drug: disodium Cromoglycate in a 2 % nasal solution. The study involved 34 patients, suffering from perennial allergic rhinitis. Each patient was included in a cross-over treatment protocol, according to which the two drugs compared were administered successively during 2 treatment periods of 2 weeks each, at the dose of 2 sprays per nostril, 5 times per day.

[5] = tested on: chronic allergic conjunctivitis; experiment: double blind clinical study in chronic allergic conjunctivitis (Example IX); format: in vivo, patients
Protocol: The trial was performed in double blind. The objective was to determine the effects of the composition according to Example I.2.: an ophthalmic solution at 4 % concentration, on the ocular symptoms and inflammatory conjunctival signs of patients suffering from chronic allergic conjunctivitis, compared with the sodium cromoglycate in ophthalmic solution at 2 % concentration used in therapy. The results of this comparative study concern 33 patients, of both sexes, who were distributed randomly into two groups: received the composition according to Example I.2. during 2 weeks at the rate of 1 drop in each eye to be treated, 3 to 5 times daily. These patients then received sodium cromoglycate in eye-drops at 2 % concentration (commercial eye-drops) during two supplementary weeks and at the same dosage, 16 patients received the same eye-drops in the reverse order and for the same lengths of time. The random assortment of the patients ensured good homogeneity in the distribution between the two treatment groups, not only in respect of the clinical characteristics, but also in respect of the duration of administration of the eye-drops under trial, and the use of concomitant treatments.

allergic conjunctivitis = experiment: trial on allergic conjunctivitis in the rabbit; format: in vivo; settings: n = 12 eyes
Text: The experimental protocol has been established according to works by OKADA et al. (OKADA-SHIMADA, Invest. Ophthalmol. Vis. Sc. 1980, 19 2, 176-181).
The model of allergic conjunctivitis used consists in effecting a conjunctival immunization in rabbits by local injection of rabbit antibodies to bovine gammaglobulins. The conjunctivitis is then triggered by the inflammation of allergic origin thus provoked are observed as an increase in the weight of the conjunctiva, and as enhancement of the conjunctival capillary permeability to iodine-125 labeled rabbit serum albumin injected intravenously before the injection of the antigen.
Two hours after the injection of bovine gammaglobulins, the rabbits are sacrificed, and then the eyes are removed and the conjunctiva dissected out, weighed and submitted to radioactive counting.
Three parameters are recorded:
the weight of the conjunctiva,
the blood conjunctiva permeability index, evaluated as the ratio of the radioactivity of 1 mg of conjunctiva to that of 1 ml of blood,
the quantity of labeled serum albumin recovered in the conjunctiva.
To evaluate the protective effect of the preparation under investigation, several batches of six rabbits are formed, which receive 6 instillations of 2 eye-drops in each eye daily for 3.5 days before the injection of labeled serum albumin.
One batch of six normal rabbits, not tested and not subjected to provacation of the allergy, is also formed ("blank" batch), as well as a batch of six control rabbits receiving instillations of physiological serum before the triggering of the conjunctivitis ("conjunctivitis controls").

ciliary movement = experiment: acute tolerance on ciliary movement, overall verdict; format: cell-based, guinea pigs or rabbits; settings: contact times which exceed 20 minutes
Text: The technique used has been described under the name of microphotooscillography (L. G. CHEVANCE, J. F. LENNON: Etude des rythmes du battement ciliare (Study of rhythms of ciliary beating) Acta Otolaryng., 1970-70, 16-28)). In this study, guinea pigs or rabbits were used which were free of all clinical sign of infection of the airways. The animals are sacrificed, and then the nasal septum or trachea is dissected out. These tissues are placed in PBS survival medium and the superficial epithelium is removed by scraping, over an area of about 1 mm^2. This sample, which contains numerous ciliated cells in movement, is placed in an observation chamber under a special microscope equipped with a microphotoelectric system permitting the recording of ciliary beats in transillumination.
The measurement consists in recording the fluctuations in the light caused by the image, enlarged 500 times, of a cilium moving in front of the aperture of a diaphragm of suitable dimensions. After amplification, the fluctuations in light are recorded graphically.
Impairments of ciliary movement are translated as a decrease in the frequency of the ciliary beats. […]

In the case of `CC(=O)N[C@@H](CC(=O)O)C(=O)N[C@@H](CCC(=O)O)C(=O)O` [NAAGA, N-acetyl-(alpha, beta)-aspartyl glutamic acid] (Ac-Asp-Glu-OH), the metabolism [1] is reported as “rapidly and extensively metabolized”.

With `O=C(O)c1cc(=O)c2c(OCC(O)COc3cccc4oc(C(=O)O)cc(=O)c34)cccc2o1` [sodium cromoglycate] the “Average number of granulated mast cells per microscopic field” value ([2]; 0.1 ml in each nostril twice daily during 3 days, 15 minutes before 48/80 at 2 %) was 4.6, the “protective effect inferior to that of NAAGA by” value ([2]; 2 % concentration (commercial solution), same experimental condition) was “about 40%” and the “frequency of marginal objective control” value [3] was 33%. For the same compound, the “frequency of marginal subjective control” value [3] was 37%, the “Nasal and systemic tolerance” value [4] was “good and no side-effects were seen” and the “patients with results of treatment considered to be good” value [4] was 61%. The “patients with improvement in the ocular symptoms” value ([5]; 1 drop in each eye 3 to 5 times daily, 2 weeks per product, 33 patients) was “more than 65%”, the “preferences expressed by the patients” value ([5]; cross-over comparison of the two eye-drops) was 33% and the “Quantity of serum albumin in the conjunctiva” value (allergic conjunctivitis; 6 instillations of 2 eye-drops in each eye daily for 3.5 days, mean ± spread) was 34.5 ± 13.6 µg. For the same compound, the “Weight of the conjunctiva” value (allergic conjunctivitis) was 411 ± 64 mg and the “Blood-conjunctiva index (× 100)” value (allergic conjunctivitis; ratio of radioactivity of 1 mg of conjunctiva to that of 1 ml of blood, × 100) was 4.7 ± 1.8.

With `CC(=O)N[C@@H](CC(=O)O)C(=O)N[C@@H](CCC(=O)O)C(=O)O` [sodium salt] (Ac-Asp-Glu-OH) the “acute tolerance on ciliary movement versus criterion (not more than 50% decrease after twenty minutes)” value (ciliary movement) was “Analogous results”.
